This passage reports CNS prediction results from publication PMC9354084 (ACS Chemical Neuroscience, 2022).

Each structure is given as a SMILES string.

The conditions of the series: PAMPA.

For the compound `CCN(C)C(=O)Oc1cccc([C@H](C)N(C)C)c1` [rivastigmine], the CNS prediction entry was “CNS + (key: CNS +: high BBB permeation predicted, Pe (×10-6 cm s-1) > 4.0; CNS -: low BBB permeation predicted, Pe (×10-6 cm s-1) < 2.0)”.
